# Patent publication US20150031668A1, “CHROMAN DERIVATIVES AS TRPM8 INHIBITORS” (AMGEN INC., priority 2013, published 2015)
# pIC50: −log10 of the molar value.
# Target: T1, human TRPM8 (Homo sapiens, UniProt Q7Z2W7)
# T1 construct: expressed in transfected cells; host or cells: Chinese hamster ovary (CHO) cells, T-REx tetracycline-inducible expression system (Invitrogen); co-transfected with pcDNA3.1 aequorin
# Assay: Luminescence readout assay for measuring intracellular calcium (aequorin, CHO cells expressing human TRPM8; icilin, L-menthol or cold activation)
# Assay type: cell-based
# Details: CHO cells expressing human TRPM8, icilin activation (1 μM), aequorin luminescence; read-out: hTRPM8 IC50
# Experimental: Luminescence Readout Assay for Measuring Intracellular Calcium
# A stable Chinese hamster ovary cell line expressing human TRPM8 was generated using tetracycline inducible T-REx™ expression system from Invitrogen, Inc. (Carlsbad, Calif.). […] Twenty four hours before the assay, cells were seeded in 96-well plates and TRPM8 expression was induced with 0.5 μg/ml tetracycline. On the day of the assay, culture media was removed and cells were incubated with assay buffer
# Potential antagonists were added 2.5 min prior to the addition of agonist, 1 μM icilin, 100 μM L-menthol, or 1 min prior to the addition of cold buffer (<10° C.). The luminescence was measured by a CCD camera based FLASH-luminometer built by Amgen, Inc. A cooling device attached to FLASH luminometer was used for cold activation.
# T1 sequence (Q7Z2W7 whole entry): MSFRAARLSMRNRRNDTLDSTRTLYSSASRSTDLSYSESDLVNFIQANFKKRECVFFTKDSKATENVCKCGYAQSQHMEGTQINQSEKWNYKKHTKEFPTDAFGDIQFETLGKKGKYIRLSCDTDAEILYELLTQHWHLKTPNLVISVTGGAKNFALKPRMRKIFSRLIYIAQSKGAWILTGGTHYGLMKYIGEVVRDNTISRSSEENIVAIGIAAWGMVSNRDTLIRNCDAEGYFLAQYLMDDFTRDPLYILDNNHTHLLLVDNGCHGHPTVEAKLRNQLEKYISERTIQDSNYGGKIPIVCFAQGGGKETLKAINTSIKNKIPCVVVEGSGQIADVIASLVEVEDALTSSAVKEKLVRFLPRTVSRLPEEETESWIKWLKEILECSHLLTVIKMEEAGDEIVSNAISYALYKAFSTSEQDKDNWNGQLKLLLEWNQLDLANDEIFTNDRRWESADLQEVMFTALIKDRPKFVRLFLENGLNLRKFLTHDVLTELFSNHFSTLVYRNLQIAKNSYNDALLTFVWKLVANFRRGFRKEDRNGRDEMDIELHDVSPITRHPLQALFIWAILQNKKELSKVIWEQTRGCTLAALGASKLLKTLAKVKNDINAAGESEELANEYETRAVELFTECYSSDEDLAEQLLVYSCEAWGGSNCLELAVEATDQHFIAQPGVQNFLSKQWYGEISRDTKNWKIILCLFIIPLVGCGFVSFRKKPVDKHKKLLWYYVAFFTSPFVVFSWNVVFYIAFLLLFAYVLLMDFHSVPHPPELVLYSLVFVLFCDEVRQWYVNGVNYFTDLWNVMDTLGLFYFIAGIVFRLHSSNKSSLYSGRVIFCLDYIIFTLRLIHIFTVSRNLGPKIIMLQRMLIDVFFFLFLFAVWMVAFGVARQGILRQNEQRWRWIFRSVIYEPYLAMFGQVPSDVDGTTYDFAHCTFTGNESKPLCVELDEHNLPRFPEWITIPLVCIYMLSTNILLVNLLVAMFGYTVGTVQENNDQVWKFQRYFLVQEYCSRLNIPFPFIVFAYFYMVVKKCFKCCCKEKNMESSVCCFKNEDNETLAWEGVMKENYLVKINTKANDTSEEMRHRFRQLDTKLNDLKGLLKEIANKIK
row,Compound,pIC50
1,"O=C(N[C@]1(c2ccc(C(F)(F)F)cc2)CCOc2cccnc21)c1ccnnc1 [Example 37, (S)-N-(4-(4-(trifluoromethyl)phenyl)-3,4-dihydro-2H-pyrano[3,2-b]pyridin-4-yl)pyridazine-4-carboxamide]",5.58
2,"O=C(N[C@]1(c2ccc(C(F)(F)F)cc2)CCOc2cccnc21)c1cncs1 [Example 39, (S)-N-(4-(4-(trifluoromethyl)phenyl)-3,4-dihydro-2H-pyrano[3,2-b]pyridin-4-yl)thiazole-5-carboxamide]",6.57
3,"O=C(N[C@]1(c2ccc(C(F)(F)F)cc2)CCOc2cccnc21)c1ccns1 [Example 41, (S)-N-(4-(4-(trifluoromethyl)phenyl)-3,4-dihydro-2H-pyrano[3,2-b]pyridin-4-yl)isothiazole-5-carboxamide]",7.06
4,"CC(=O)Nc1ccc(C(=O)N[C@]2(c3ccc(C(F)(F)F)cc3)CCOc3cccnc32)nc1 [Example 43, (S)-5-acetamido-N-(4-(4-(trifluoromethyl)phenyl)-3,4-dihydro-2H-pyrano[3,2-b]pyridin-4-yl)picolinamide]",6.95
5,"O=C(N[C@]1(c2ccc(C(F)(F)F)cc2)CCOc2cccnc21)c1ccncc1 [Example 46, (S)-N-(4-(4-(trifluoromethyl)phenyl)-3,4-dihydro-2H-pyrano[3,2-b]pyridin-4-yl)isonicotinamide]",6.45
6,"COc1ccc(C(=O)N[C@]2(c3ccc(C(F)(F)F)cc3)CCOc3cccnc32)nn1 [Example 47, (S)-6-methoxy-N-(4-(4-(trifluoromethyl)phenyl)-3,4-dihydro-2H-pyrano[3,2-b]pyridin-4-yl)pyridazine-3-carboxamide]",7.09
7,"O=C(N[C@]1(c2ccc(C(F)(F)F)cc2)CCOc2cccnc21)c1cccnc1 [Example 48, (S)-N-(4-(4-(trifluoromethyl)phenyl)-3,4-dihydro-2H-pyrano[3,2-b]pyridin-4-yl)nicotinamide]",6.32
8,"O=C(N[C@]1(c2ccc(C(F)(F)F)cc2)CCOc2cccnc21)c1ccc(=O)[nH]c1 [Example 60, (S)-6-oxo-N-(4-(4-(trifluoromethyl)phenyl)-3,4-dihydro-2H-pyrano[3,2-b]pyridin-4-yl)-1,6-dihydropyridine-3-carboxamide]",6.90
9,"O=C(N[C@]1(c2ccc(OC(F)(F)F)c(F)c2)CCOc2cccnc21)c1ccc2[nH]c(=O)c(=O)[nH]c2c1 [Example 64, (S)—N-(4-(3-fluoro-4-(trifluoromethoxy)phenyl)-3,4-dihydro-2H-pyrano[3,2-b]pyridin-4-yl)-2,3-dioxo-1,2,3,4-tetrahydroquinoxaline-6-carboxamide]",6.47
10,"C[C@H](NC(=O)N[C@]1(c2ccc(C(F)(F)F)cc2)CCOc2cccnc21)C(F)(F)F [Example 67, 1-((S)-4-(4-(trifluoromethyl)phenyl)-3,4-dihydro-2H-pyrano[3,2-b]pyridin-4-yl)-3-((S)-1,1,1-trifluoropropan-2-yl)urea 2,2,2-trifluoroacetate]",6.53
11,"O=C(Nc1cccnc1)NC1(c2ccc(C(F)(F)F)cc2)CCOc2ccccc21 (stereo not shown) [Example 70, 1-(pyridin-3-yl)-3-(4-(4-(trifluoromethyl)phenyl)chroman-4-yl)urea]",5.87
12,"O=C(Nc1cccnc1)NC1(c2ccc(C(F)(F)F)cc2)CCCc2cccnc21 (stereo not shown) [Example 71, 1-(pyridin-3-yl)-3-(8-(4-(trifluoromethyl)phenyl)-5,6,7,8-tetrahydroquinolin-8-yl)urea]",6.84

# These reach a higher pIC50. Values come first.
row,pIC50,Compound
1,7.29,"O=C(N[C@]1(c2ccc(OC(F)(F)F)c(F)c2)CCOc2cccnc21)c1ccc([N+](=O)[O-])cn1 [Example 62, (S)-N-(4-(3-fluoro-4-(trifluoromethoxy)phenyl)-3,4-dihydro-2H-pyrano[3,2-b]pyridin-4-yl)-5-nitropicolinamide]"
2,7.37,"O=C(N[C@]1(c2ccc(C(F)(F)F)cc2)CCOc2cccnc21)c1ccn2ccnc2c1 [Example 49, (S)-N-(4-(4-(trifluoromethyl)phenyl)-3,4-dihydro-2H-pyrano[3,2-b]pyridin-4-yl)imidazo[1,2-a]pyridine-7-carboxamide]"
3,7.42,"O=C(N[C@]1(c2ccc(C(F)(F)F)cc2)CCOc2cccnc21)c1c[nH]c(=O)cn1 [Example 45, (S)-5-oxo-N-(4-(4-(trifluoromethyl)phenyl)-3,4-dihydro-2H-pyrano[3,2-b]pyridin-4-yl)-4,5-dihydropyrazine-2-carboxamide]"
4,7.44,"O=C(Nc1ccc(Cl)nc1)N[C@]1(c2ccc(OC(F)(F)F)c(F)c2)CCOc2cccnc21 [Example 69, (S)-1-(6-chloropyridin-3-yl)-3-(4-(3-fluoro-4-(trifluoromethoxy)phenyl)-3,4-dihydro-2H-pyrano[3,2-b]pyridin-4-yl)urea]"
5,7.62,"Cn1ccc2cc(C(=O)N[C@]3(c4ccc(C(F)(F)F)cc4)CCOc4cccnc43)ccc21 [Example 42, (S)-1-methyl-N-(4-(4-(trifluoromethyl)phenyl)-3,4-dihydro-2H-pyrano[3,2-b]pyridin-4-yl)-1H-indole-5-carboxamide]"
6,7.64,"N#Cc1ccc(NC(=O)N[C@]2(c3ccc(OC(F)(F)F)c(F)c3)CCOc3cccnc32)cc1 [Example 68, (S)-1-(4-cyanophenyl)-3-(4-(3-fluoro-4-(trifluoromethoxy)phenyl)-3,4-dihydro-2H-pyrano[3,2-b]pyridin-4-yl)urea]"
7,7.66,"O=C(N[C@]1(c2ccc(OC(F)(F)F)c(F)c2)CCOc2cccnc21)c1ccc(F)cn1 [Example 55, (S)-5-fluoro-N-(4-(3-fluoro-4-(trifluoromethoxy)phenyl)-3,4-dihydro-2H-pyrano[3,2-b]pyridin-4-yl)picolinamide]"
8,7.68,"O=C(N[C@]1(c2ccc(C(F)(F)F)cc2)CCOc2cccnc21)c1ccc2cccnc2c1 [Example 56, (S)-N-(4-(4-(trifluoromethyl)phenyl)-3,4-dihydro-2H-pyrano[3,2-b]pyridin-4-yl)quinoline-7-carboxamide]"
9,7.70,"Cn1ncc2ccc(C(=O)N[C@]3(c4ccc(C(F)(F)F)cc4)CCOc4cccnc43)cc21 [Example 38, (S)-1-methyl-N-(4-(4-(trifluoromethyl)phenyl)-3,4-dihydro-2H-pyrano[3,2-b]pyridin-4-yl)-1H-indazole-6-carboxamide]"
10,7.72,"CNC(=O)c1ccc(C(=O)N[C@]2(c3ccc(OC(F)(F)F)c(F)c3)CCOc3cccnc32)cn1 [Example 63, (S)-N5-(4-(3-fluoro-4-(trifluoromethoxy)phenyl)-3,4-dihydro-2H-pyrano[3,2-b]pyridin-4-yl)-N2-methylpyridine-2,5-dicarboxamide]"
11,7.77,"O=C(Nc1ccc(F)nc1)N[C@]1(c2ccc(OC(F)(F)F)c(F)c2)CCOc2cccnc21 [Example 66, (S)-1-(4-(3-fluoro-4-(trifluoromethoxy)phenyl)-3,4-dihydro-2H-pyrano[3,2-b]pyridin-4-yl)-3-(6-fluoropyridin-3-yl)urea 2,2,2-trifluoroacetate]"
12,7.80,"O=C(N[C@]1(c2ccc(OC(F)(F)F)c(F)c2)CCOc2cccnc21)c1ccc2nccn2c1 [Example 52, (S)-N-(4-(3-fluoro-4-(trifluoromethoxy)phenyl)-3,4-dihydro-2H-pyrano[3,2-b]pyridin-4-yl)imidazo[1,2-a]pyridine-6-carboxamide]"
13,7.82,"Cn1ncc2cc(C(=O)N[C@]3(c4ccc(OC(F)(F)F)c(F)c4)CCOc4cccnc43)ccc21 [Example 53, (S)-N-(4-(3-fluoro-4-(trifluoromethoxy)phenyl)-3,4-dihydro-2H-pyrano[3,2-b]pyridin-4-yl)-1-methyl-1H-indazole-5-carboxamide]"
14,7.92,"CS(=O)(=O)Nc1ccc(C(=O)N[C@]2(c3ccc(OC(F)(F)F)c(F)c3)CCOc3cccnc32)nc1 [Example 65, (S)—N-(4-(3-fluoro-4-(trifluoromethoxy)phenyl)-3,4-dihydro-2H-pyrano[3,2-b]pyridin-4-yl)-5-(methylsulfonamido)picolinamide]"
15,7.96,"O=C1CCc2cc(C(=O)N[C@]3(c4ccc(OC(F)(F)F)c(F)c4)CCOc4cccnc43)ccc2N1 [Example 54, (S)-N-(4-(3-fluoro-4-(trifluoromethoxy)phenyl)-3,4-dihydro-2H-pyrano[3,2-b]pyridin-4-yl)-2-oxo-1,2,3,4-tetrahydroquinoline-6-carboxamide]"
16,8.10,"Cn1ncc2cc(C(=O)N[C@]3(c4ccc(C(F)(F)F)cc4)CCOc4cccnc43)ccc21 [Example 44, (S)-1-methyl-N-(4-(4-(trifluoromethyl)phenyl)-3,4-dihydro-2H-pyrano[3,2-b]pyridin-4-yl)-1H-indazole-5-carboxamide]"
17,8.15,"O=C(N[C@]1(c2ccc(C(F)(F)F)cc2)CCOc2cccnc21)c1ccc(O)cn1 [Example 40, (S)-5-hydroxy-N-(4-(4-(trifluoromethyl)phenyl)-3,4-dihydro-2H-pyrano[3,2-b]pyridin-4-yl)picolinamide]"
18,8.30,"O=C(N[C@]1(c2ccc(OC(F)(F)F)c(F)c2)CCOc2cccnc21)c1ccc(O)cn1 [Example 51, (S)-N-(4-(3-fluoro-4-(trifluoromethoxy)phenyl)-3,4-dihydro-2H-pyrano[3,2-b]pyridin-4-yl)-5-hydroxypicolinamide]"
19,8.40,"O=C(N[C@]1(c2ccc(OC(F)(F)F)c(F)c2)CCOc2cccnc21)c1ccc2oc(=O)[nH]c2c1 [Example 57, (S)-N-(4-(3-fluoro-4-(trifluoromethoxy)phenyl)-3,4-dihydro-2H-pyrano[3,2-b]pyridin-4-yl)-2-oxo-2,3-dihydrobenzo[d]oxazole-5-carboxamide]"
